From PubChem BioAssay AID2060902 (Molecular Pharmacology Branch, DTP, NCI, 2025)

Tested on: 485368-065-R3-J5-PDC spheroids with HUVEC/MSC, viability
Test: Anticancer human tumor 485368-065-R3-J5-PDC patient-derived pancreatic carcinoma cell line growth inhibition [RAS]
Conditions: for IC50: curve of first compound; for viability, T/C: stronger effect = lower value
Outline: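 Tumour cells grown as complex spheroids with HUVEC endothelial cells and mesenchymal stem cells, treated with RAS pathway inhibitor combinations. Each agent spans half-log steps from near clinical Cmax, or 10 microM where Cmax is unknown.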

[1] = second compound 0.00316 µM, first compound 0.0316 µM
[2] = second compound 0.00316 µM, first compound 0.1 µM
[3] = second compound 0.00316 µM, first compound 0.316 µM
[4] = second compound 0.00316 µM, first compound 1 µM
[5] = second compound 0.00316 µM, first compound 3.16 µM
[6] = second compound 0.00316 µM, first compound 10 µM
[7] = second compound 0.01 µM, first compound 0.0316 µM
[8] = second compound 0.01 µM, first compound 0.1 µM
[9] = second compound 0.01 µM, first compound 0.316 µM
[10] = second compound 0.01 µM, first compound 1 µM
[11] = second compound 0.01 µM, first compound 3.16 µM
[12] = second compound 0.01 µM, first compound 10 µM
[13] = second compound 0.0316 µM, first compound 0.0316 µM
[14] = second compound 0.0316 µM, first compound 0.1 µM
[15] = second compound 0.0316 µM, first compound 0.316 µM
[16] = second compound 0.0316 µM, first compound 1 µM
[17] = second compound 0.0316 µM, first compound 3.16 µM
[18] = second compound 0.0316 µM, first compound 10 µM
[19] = second compound 0.1 µM, first compound 0.0316 µM
[20] = second compound 0.1 µM, first compound 0.1 µM
[21] = second compound 0.1 µM, first compound 0.316 µM
[22] = second compound 0.1 µM, first compound 1 µM
[23] = second compound 0.1 µM, first compound 3.16 µM
[24] = second compound 0.1 µM, first compound 10 µM
[25] = second compound 0.316 µM, first compound 0.0316 µM
[26] = second compound 0.316 µM, first compound 0.1 µM
[27] = second compound 0.316 µM, first compound 0.316 µM
[28] = second compound 0.316 µM, first compound 1 µM
[29] = second compound 0.316 µM, first compound 3.16 µM
[30] = second compound 0.316 µM, first compound 10 µM
[31] = second compound 1 µM, first compound 0.0316 µM
[32] = second compound 1 µM, first compound 0.1 µM
[33] = second compound 1 µM, first compound 0.316 µM
[34] = second compound 1 µM, first compound 1 µM
[35] = second compound 1 µM, first compound 3.16 µM
[36] = second compound 1 µM, first compound 10 µM
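Note: spheroids exposed to agents for seven days before readout.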

CC(C)NCC(C(=O)N1CCN(c2ncnc3c2C(C)CC3O)CC1)c1ccc(Cl)cc1 (stereo unspecified) + C=CC(=O)N1CCN(c2nc(OCC3CCCN3C)nc3c(F)c(-c4nc(N)cc(C)c4C(F)(F)F)c(Cl)cc23)C(C)C1
IC50 (second compound 0.00316 µM): > 10 µM
IC50 (second compound 0.01 µM): > 10 µM
IC50 (second compound 0.0316 µM): > 10 µM
IC50 (second compound 0.1 µM): > 10 µM
IC50 (second compound 0.316 µM): > 10 µM
IC50 (second compound 1 µM): 9.61 µM
viability, T/C [1]: 101%
viability, T/C [2]: 93.7%
viability, T/C [3]: 94.7%
viability, T/C [4]: 82.9%
viability, T/C [5]: 70.8%
viability, T/C [6]: 61.6%
viability, T/C [7]: 109%
viability, T/C [8]: 101%
viability, T/C [9]: 91.4%
viability, T/C [10]: 75.8%
viability, T/C [11]: 72.9%
viability, T/C [12]: 53.5%
viability, T/C [13]: 102%
viability, T/C [14]: 124%
viability, T/C [15]: 93.3%
viability, T/C [16]: 88.2%
viability, T/C [17]: 68.6%
viability, T/C [18]: 57%
viability, T/C [19]: 102%
viability, T/C [20]: 105%
viability, T/C [21]: 93.1%
viability, T/C [22]: 78.9%
viability, T/C [23]: 70.5%
viability, T/C [24]: 57.8%
viability, T/C [25]: 100%
viability, T/C [26]: 105%
viability, T/C [27]: 97.3%
viability, T/C [28]: 78.3%
viability, T/C [29]: 71.8%
viability, T/C [30]: 52.9%
viability, T/C [31]: 101%
viability, T/C [32]: 90.6%
viability, T/C [33]: 102%
viability, T/C [34]: 84.6%
viability, T/C [35]: 68%
viability, T/C [36]: 49.1%

CC(C)n1nc(-c2ccc3oc(N)nc3c2)c2c(N)ncnc21 + C=CC(=O)N1CCN(c2nc(OCC3CCCN3C)nc3c(F)c(-c4nc(N)cc(C)c4C(F)(F)F)c(Cl)cc23)C(C)C1
IC50 (second compound 0.00316 µM): 0.014 µM
IC50 (second compound 0.01 µM): 0.0146 µM
IC50 (second compound 0.0316 µM): 0.0169 µM
IC50 (second compound 0.1 µM): 0.0196 µM
IC50 (second compound 0.316 µM): 0.0169 µM
IC50 (second compound 1 µM): 0.0217 µM
viability, T/C (second compound 0.00316 µM, first compound 0.000316 µM): 106%
viability, T/C (second compound 0.00316 µM, first compound 0.001 µM): 99.4%
viability, T/C (second compound 0.00316 µM, first compound 0.00316 µM): 77.1%
viability, T/C (second compound 0.00316 µM, first compound 0.01 µM): 56%
viability, T/C [1]: 35.6%
viability, T/C [2]: 16.1%
viability, T/C (second compound 0.01 µM, first compound 0.000316 µM): 104%
viability, T/C (second compound 0.01 µM, first compound 0.001 µM): 90.4%
viability, T/C (second compound 0.01 µM, first compound 0.00316 µM): 81.4%
viability, T/C (second compound 0.01 µM, first compound 0.01 µM): 53.6%
viability, T/C [7]: 37.2%
viability, T/C [8]: 15.3%
viability, T/C (second compound 0.0316 µM, first compound 0.000316 µM): 97.2%
viability, T/C (second compound 0.0316 µM, first compound 0.001 µM): 95.8%
viability, T/C (second compound 0.0316 µM, first compound 0.00316 µM): 84.7%
viability, T/C (second compound 0.0316 µM, first compound 0.01 µM): 60.9%
viability, T/C [13]: 36.5%
viability, T/C [14]: 16.6%
viability, T/C (second compound 0.1 µM, first compound 0.000316 µM): 105%
viability, T/C (second compound 0.1 µM, first compound 0.001 µM): 90.9%
viability, T/C (second compound 0.1 µM, first compound 0.00316 µM): 96.3%
viability, T/C (second compound 0.1 µM, first compound 0.01 µM): 73.9%
viability, T/C [19]: 32.8%
viability, T/C [20]: 15.8%
viability, T/C (second compound 0.316 µM, first compound 0.000316 µM): 105%
viability, T/C (second compound 0.316 µM, first compound 0.001 µM): 99.8%
viability, T/C (second compound 0.316 µM, first compound 0.00316 µM): 83.3%
viability, T/C (second compound 0.316 µM, first compound 0.01 µM): 60.1%
viability, T/C [25]: 38%
viability, T/C [26]: 19.6%
viability, T/C (second compound 1 µM, first compound 0.000316 µM): 100%
viability, T/C (second compound 1 µM, first compound 0.001 µM): 87.8%
viability, T/C (second compound 1 µM, first compound 0.00316 µM): 84.1%
viability, T/C (second compound 1 µM, first compound 0.01 µM): 67%
viability, T/C [31]: 41%
viability, T/C [32]: 16.1%

C[C@@H](NC(=O)c1ncnc(N)c1Cl)c1ncc(C(=O)Nc2cc(C(F)(F)F)c(Cl)cn2)s1 + C=CC(=O)N1CCN(c2nc(OCC3CCCN3C)nc3c(F)c(-c4nc(N)cc(C)c4C(F)(F)F)c(Cl)cc23)C(C)C1
IC50 (second compound 0.00316 µM): > 10 µM
IC50 (second compound 0.01 µM): > 10 µM
IC50 (second compound 0.0316 µM): > 10 µM
IC50 (second compound 0.1 µM): > 10 µM
IC50 (second compound 0.316 µM): > 10 µM
IC50 (second compound 1 µM): > 10 µM
viability, T/C [1]: 119%
viability, T/C [2]: 99.9%
viability, T/C [3]: 104%
viability, T/C [4]: 95%
viability, T/C [5]: 86.6%
viability, T/C [6]: 73.7%
viability, T/C [7]: 103%
viability, T/C [8]: 105%
viability, T/C [9]: 95.8%
viability, T/C [10]: 104%
viability, T/C [11]: 92.1%
viability, T/C [12]: 77%
viability, T/C [13]: 107%
viability, T/C [14]: 94.8%
viability, T/C [15]: 104%
viability, T/C [16]: 104%
viability, T/C [17]: 91.8%
viability, T/C [18]: 78.6%
viability, T/C [19]: 108%
viability, T/C [20]: 103%
viability, T/C [21]: 107%
viability, T/C [22]: 103%
viability, T/C [23]: 94.6%
viability, T/C [24]: 77%
viability, T/C [25]: 104%
viability, T/C [26]: 106%
viability, T/C [27]: 107%
viability, T/C [28]: 102%
viability, T/C [29]: 98.6%
viability, T/C [30]: 80.2%
viability, T/C [31]: 105%
viability, T/C [32]: 111%
viability, T/C [33]: 94.7%
viability, T/C [34]: 104%
viability, T/C [35]: 96.5%
viability, T/C [36]: 81.4%
